Reference: patent publication US20070066628A1 (Wyeth, priority 2005, published 2007)
“And” between values parts separate entries of the source, which are not always exact repeats. Equal entries are not always repeated.

Assays:
[1] = molecular target: T1, PR (Homo sapiens, UniProt P06401); experiment: T47D cell alkaline phosphatase assay; type: cell-based; details: T47D cells, agonist mode; read-out: Alk. Phos. EC50
T1 construct: Frozen T47D cells were thawed in a 37° C. water bath and diluted to 280,000 cells/mL in culture medium; endogenous in cells; host or cells: T47D cells
T1 sequence (P06401 1-933): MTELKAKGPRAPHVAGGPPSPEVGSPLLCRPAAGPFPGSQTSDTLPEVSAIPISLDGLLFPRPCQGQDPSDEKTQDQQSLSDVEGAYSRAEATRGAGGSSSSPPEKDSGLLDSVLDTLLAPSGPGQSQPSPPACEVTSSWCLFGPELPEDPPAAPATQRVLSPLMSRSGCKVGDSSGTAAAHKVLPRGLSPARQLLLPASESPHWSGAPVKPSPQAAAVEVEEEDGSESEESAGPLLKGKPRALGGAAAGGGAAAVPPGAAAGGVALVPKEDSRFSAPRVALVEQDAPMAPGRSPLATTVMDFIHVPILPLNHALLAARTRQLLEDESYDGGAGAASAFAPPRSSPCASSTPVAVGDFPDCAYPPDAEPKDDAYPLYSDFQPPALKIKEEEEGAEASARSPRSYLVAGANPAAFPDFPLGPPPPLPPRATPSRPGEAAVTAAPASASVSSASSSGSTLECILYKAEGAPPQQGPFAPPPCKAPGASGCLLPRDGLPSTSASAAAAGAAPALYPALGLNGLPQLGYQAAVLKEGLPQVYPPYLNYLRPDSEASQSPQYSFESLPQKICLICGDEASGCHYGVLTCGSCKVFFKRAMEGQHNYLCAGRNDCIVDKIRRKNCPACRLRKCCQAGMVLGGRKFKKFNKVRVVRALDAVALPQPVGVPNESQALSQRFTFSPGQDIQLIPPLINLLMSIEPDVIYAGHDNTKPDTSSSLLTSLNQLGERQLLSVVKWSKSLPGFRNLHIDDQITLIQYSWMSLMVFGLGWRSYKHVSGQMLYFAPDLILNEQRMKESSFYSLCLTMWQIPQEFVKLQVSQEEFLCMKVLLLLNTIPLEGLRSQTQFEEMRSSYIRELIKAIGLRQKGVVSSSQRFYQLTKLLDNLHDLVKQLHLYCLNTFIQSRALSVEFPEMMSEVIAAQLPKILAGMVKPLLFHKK
Procedure: (4) T47D Cell Alkaline Phosphatase Assay
(a) Purpose: To identify progestins or antiprogestins by determining a compound's effect on alkaline phosphatase activity in T47D cells.
(b) Methods: • A. Reagents • (i) Culture medium: DMEM:F12 (1:1) (GIBCO, BRL) supplemented with 5% (v/v) charcoal stripped fetal bovine serum (not heat-inactivated), 100 U/mL penicillin, […] streptomycin, and 2 mM GlutaMax (GIBCO, BRL). • (ii) Alkaline Phosphatase Assay Buffer • I. 0.1 M Tris-HCl, pH 9.8, containing 0.2% the Triton™ X-100 reagent • II. 0.1 M Tris-HCl, pH 9.8 containing 4 mM p-nitrophenyl phosphate (Sigma). • B. Cell Culture and Treatment • Frozen T47D cells were thawed in a 37° C. water bath and diluted to 280,000 cells/mL in culture medium. To each well in a 96-well plate (Falcon, Becton Dickinson Labware), 180 μL of diluted cell suspension was added. Twenty μL of reference or test compounds diluted in the culture medium was then added to each well. […] The cells were incubated at 37° C. in a 5% CO2/humidified atmosphere for 24 hours. • Note: For high throughput screening, one concentration of each compound was tested at 0.3 mg/mL. […]
Square root-transformed data were used for analysis of variance and nonlinear dose response curve fitting for both agonist and antagonist modes. […] EC50 or IC50 values were calculated from the retransformed values. […]

[2] = test system: rat uterine decidualization; experiment: Rat decidualization assay; details: s.c.; for Estimated EC50 for uterine weight (decidual response): ovariectomized female Sprague-Dawley rats, once daily for seven days, individual studies; for Estimated average EC50 for uterine weight (decidual response): ovariectomized rats, average of dose-response curves
Procedure: (2) Rat Decidualization Assay
(a) Objective: This procedure is used to evaluate the effect of progestins and antiprogestins on rat uterine decidualization and compares the relative potencies of various test compounds.
(b) Methods • A. Reagents • Test compounds are dissolved in 100% ethanol and mixed with corn oil (vehicle). Stock solutions of the test compounds in oil (the Mazola™ oil) are then prepared by heating (˜80° C.) the mixture to evaporate ethanol. Test compounds are subsequently diluted with 100% corn oil or 10% ethanol in corn oil prior to the treatment of animals. […] Ovariectomy is performed at least 10 days prior to treatment to reduce circulating sex steroids. Animals are housed under 12 hours light/dark cycle and given standard rat chow and water ad libitum. • C. […] Test compounds in 0.2 mL vehicle are administered by subcutaneous injection in the nape of the neck or by gavage using 0.5 mL. The animals are treated once daily for seven days. […] In all studies, a control group receiving vehicle is included. Determination of dose-response curves is carried out using doses with half log increases (e.g. 0.1, 0.3, 1.0, 3.0 mg/kg). • E. Decidual Induction • Approximately 24 hours after the third injection, decidualization is induced in one of the uterine horns by scratching the antimesometrial luminal epithelium with a blunt 21 G needle. The contralateral horn is not scratched and serves as an unstimulated control. Approximately 24 hours following the final treatment, rats are sacrificed by CO2 asphyxiation and body weight measured. Uteri are removed and trimmed of fat. […] The Huber M-estimator is used to down weight the outlying transformed observations for both dose-response curve fitting and one-way analysis of variance. JMP software (SAS Institute, Inc.) is used for both one-way ANOVA and non-linear dose-response analyses. • G. Reference Compounds:
All progestin reference compounds are run in full dose-response curves and the EC50 for uterine wet weight is calculated.

EC50 [1]	Estimated average EC50 for uterine weight (decidual response) [2]	Structure (SMILES)	Estimated EC50 for uterine weight (decidual response) [2]
18.6 nM		Cn1c(C#N)ccc1-c1ccc2c(c1)C(C)(C)CC2O (stereo not shown) [Example 3, 5-(1-hydroxy-3,3-dimethyl-2,3-dihydro-1H-inden-5-yl)-1-methyl-1H-pyrrole-2-carbonitrile]	
		CC(=O)O[C@]1(C(C)=O)CC[C@H]2[C@@H]3C[C@H](C)C4=CC(=O)CC[C@]4(C)[C@H]3CC[C@@]21C [MPA, medroxyprogesterone acetate]	0.42 mg/kg, s.c. and 0.39 mg/kg, s.c. (2×)
	0.10 mg/kg, s.c.	C#C[C@]1(O)CC[C@H]2[C@@H]3CCC4=CC(=O)CC[C@@H]4[C@H]3C(=C)C[C@@]21CC [3-Ketodesogestrel]	
	5.62 mg/kg, s.c.	CC(=O)[C@H]1CC[C@H]2[C@@H]3CCC4=CC(=O)CC[C@]4(C)[C@H]3CC[C@]12C [Progesterone]	5.50 mg/kg, s.c.
	0.10 mg/kg, s.c.	C#C[C@]1(O)CC[C@H]2[C@@H]3CCC4=CC(=O)CC[C@@H]4[C@H]3CC[C@@]21CC [Levonorgestrel]	0.08 mg/kg, s.c. and 0.12 mg/kg, s.c. and 0.09 mg/kg, s.c. (2×)
